Each structure is given as a SMILES string.

In one test the target is T1, human PPAR γ (Homo sapiens, UniProt P37231).
T1 construct: expressed in transfected cells; host or cells: CV-1 cells
T1 sequence (P37231 176-477 isoform P37231-2): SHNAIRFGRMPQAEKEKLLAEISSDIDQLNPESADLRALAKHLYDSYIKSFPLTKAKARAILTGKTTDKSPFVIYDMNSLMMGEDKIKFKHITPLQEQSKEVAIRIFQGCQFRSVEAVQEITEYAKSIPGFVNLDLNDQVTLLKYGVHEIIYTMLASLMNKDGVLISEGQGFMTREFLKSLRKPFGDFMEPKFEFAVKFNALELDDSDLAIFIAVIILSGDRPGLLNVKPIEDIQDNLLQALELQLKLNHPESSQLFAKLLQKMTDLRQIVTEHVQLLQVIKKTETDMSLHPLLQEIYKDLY
Kind of test: Luciferase assay using human PPAR γ (Gal4-PPAR chimeric receptor in CV-1 cells). Format: cell-based. To be noted: compound 1.0 μM; luciferase activity of troglitazone 10 μM defined as 1.0.

The subject of another test is SD rats. Kind of test: Hypocholesterolemic and hypolipidemic effects in normal rats. It counts as in vivo. To be noted: 10 mg/kg orally, hypercholesterolemic food, blood sampled next day. The text has this: Hypocholesterolemic and hypolipidemic effects in normal rats:
Male, six-weeks old SD rats (seven rats per group) were left to take milled diet and water ad libitum and were acclimatized for 1 week.
At 9:00 on the first day of the experiment (Day 0) blood sampling was done from tail vein. The rats were divided into some groups by body weight, triglyceride(TG), non-esterified fatty acid (NEFA), total cholesterol (TC) values to minimize differences of the parameters among the groups. At 17:00 of the day the compound of the present invention suspended in 0.5% aqueous solution of carboxymethylcellulose (CMC) was orally administered at a dose of 10 mg/kg, and thereafter, with hypercholesterolemic food (5.5% peanut oil, 1.5% cholesterol and 0.5% cholic acid were mixed with milled CRF-1 diet, Charles River Inc.) was given to the rats.
At 9:00 of the next day, blood sampling was done from tail vein. The lipid values in blood (TG, NEFA and TC values) were measured.
There was no significant difference of the food intake between the control group (provided only 0.5% CMC) and the group treated with the compounds of the present invention.

The subject of the next test is KKAy/Ta mice. As to the kind of experiment: Hypoglycemic and hypolipidemic effects in KKAy mice. It counts as in vivo. Conditions: 3 days, food containing 0.03 % (w/w) compound, 38.9 mg/kg/day (converted). The text has this:
Hypoglycemic and hypolipidemic effects in KKAy mice:
Male, 7-weeks old KKAy/Ta mice weighed from […] (seven mice per group) were pre-breaded for approximately one week and acclimatized for three days on milled diet. On the first day of the experiment (Day 0), mice were divided into some groups by weight, plasma glucose and triglyceride (TG) levels to minimize the differences among groups. From the next day for two days they were given compounds by food mixture containing 0.03 % (w/w) of the compound of the present invention or by milled diet only. At 13:00 of the third day, blood samples were collected and glucose and TG were measured. Additionally, there was no significant difference in the food intake between control group (milled diet only) and compounds-treated group (milled diet containing 0.03 % compounds).

A further test has as its target T2, human PPAR α (Homo sapiens, UniProt Q07869).
T2 construct: expressed in transfected cells; host or cells: CV-1 cells
T2 sequence (Q07869 167-468): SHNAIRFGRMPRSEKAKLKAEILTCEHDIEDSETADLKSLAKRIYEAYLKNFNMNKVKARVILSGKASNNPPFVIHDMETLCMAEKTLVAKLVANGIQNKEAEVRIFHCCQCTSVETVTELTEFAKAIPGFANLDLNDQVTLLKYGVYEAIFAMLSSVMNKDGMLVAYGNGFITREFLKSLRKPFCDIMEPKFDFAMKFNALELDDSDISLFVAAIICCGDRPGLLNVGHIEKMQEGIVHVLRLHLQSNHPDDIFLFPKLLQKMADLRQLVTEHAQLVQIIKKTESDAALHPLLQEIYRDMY
Kind of test: Luciferase assay using human PPAR α (Gal4-PPAR chimeric receptor in CV-1 cells). Conditions: compound 0.3 μM; luciferase activity of carbaprostacylin 10 μM defined as 1.0. It counts as cell-based.

Another test addresses T3, human PPAR δ (Homo sapiens, UniProt Q03181).
T3 construct: expressed in transfected cells; host or cells: CV-1 cells
T3 sequence (Q03181 139-441): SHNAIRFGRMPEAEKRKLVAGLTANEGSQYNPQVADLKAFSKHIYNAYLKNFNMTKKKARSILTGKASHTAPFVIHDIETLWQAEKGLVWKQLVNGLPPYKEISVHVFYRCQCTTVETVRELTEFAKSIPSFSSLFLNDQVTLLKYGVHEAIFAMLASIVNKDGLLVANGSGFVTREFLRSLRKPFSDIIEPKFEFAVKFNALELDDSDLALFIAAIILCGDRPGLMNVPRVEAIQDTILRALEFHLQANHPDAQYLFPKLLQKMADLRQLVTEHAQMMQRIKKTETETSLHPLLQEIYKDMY
Kind of test: Luciferase assay using human PPAR δ (Gal4-PPAR chimeric receptor in CV-1 cells). It counts as cell-based. Conditions: luciferase activity with solvent containing no compound defined as 1.0.

As for `Cc1oc(-c2ccccc2)nc1CCOc1cccc(CSCC(=O)O)c1` [Example 2 (12), 2-(3-(2-(5-methyl-2-phenyloxazol-4-yl)ethoxy)phenylmethylthio)acetic acid], at human PPAR γ, the “PPAR γ agonist activity, Relative Activity” value is recorded as 1.4. The TG value was 100 ± 14 mg/dL with SD rats (control 147 ± 9) and 221 ± 66 mg/dL in the test on KKAy/Ta mice (control 558 ± 107). In the test on SD rats (control 188 ± 5), this compound returned a TC value of 70 ± 5 mg/dL. This compound also had an NEFA value in the test with SD rats (control 489 ± 66) of 178 ± 14 μEq/l. Besides, in the test on KKAy/Ta mice (control 495 ± 35), the glycemic value is 214 ± 19 mg/dL. Also, at human PPAR α, the “PPAR α agonist activity, Relative Activity” value was 1.7.
`Cc1oc(-c2ccc3c(c2)OCO3)nc1CCOc1cccc(CC(=O)O)c1` [Example 2 (93), 2-(3-(2-(5-methyl-2-(1,3-dioxaindan-5-yl)oxazol-4-yl)ethoxy)phenyl)acetic acid]: the results for the “PPAR δ agonist activity, relative activity” value at human PPAR δ (concentration 1.0 μM) and at human PPAR δ (concentration 10.0 μM) were 36.1 and 54.7, respectively.
With `Cc1oc(-c2ccccc2)nc1CCOc1cccc(CC(=O)O)c1` [Example 2 (22)], the “PPAR δ agonist activity, relative activity” value is recorded as 9.3 on human PPAR δ (concentration 1.0 μM) and 66.7 on human PPAR δ (concentration 10.0 μM).
`O=C(O)CSCc1cccc(OCc2ccc(-c3ccccc3)cc2)c1` [Example 2 (11), 2-(3-(biphenyl-4-ylmethoxy)phenylmethylthio)acetic acid]: the “PPAR α agonist activity, Relative Activity” value at human PPAR α came out at 3.2.
The same measure, in the same setting: the result for `Cc1oc(-c2ccccc2)nc1CCOc1cccc(CCCC(=O)O)c1` [Example 2 (5), 4-(3-(2-(5-methyl-2-phenyloxazol-4-yl)ethoxy)phenyl)butanoic acid] reads 0.8.

(Values after US7037914B2, “Carboxylic acid derivative and a pharmaceutical composition containing the derivative as active ingredient” (Ono Pharmaceutical Co., Ltd., priority 1998, dated 2006).)
